According to patent US11865098B1, “Methods and compositions for treating excessive sleepiness” (Axsome Malta Ltd., priority 2017, dated 2024):

Assays:
Format in all cases: in vivo, human
[1] = tested on: adult patients with OSA and ES; assay: ESS, 12-week placebo-controlled parallel study in OSA; conditions: 37.5, 75, 150, 300 mg; week 12
Protocol: The ESS is a subjective sleepiness test that is well known in the art and routinely used to measure the sleepiness level of a subject. The scale is intended to measure daytime sleepiness through the use of a short questionnaire that asks the subject to rate his or her probability of falling asleep on a scale of increasing probability from 0 to 3 for eight different situations that most people engage in during their daily lives. The scores for the eight questions are added together to obtain a single number that estimates the subject's average sleep propensity (ASP). […]
The study was a 12-week, double-blind, placebo-controlled, parallel design study as described in greater detail in Example 1 (Schweitzer et al., Sleep 40(Abstract Supplement):A237. Abstract 0641 (2017)). […] The Functional Outcomes of Sleep questionnaire short version (FOSQ-10) (Chasens et al., Sleep 32(7):915 (2009)) evaluated the effects of ES on functioning. The Work Productivity and Activity Impairment questionnaire for Specific Health Problems (WPAI:SHP) (Reilly et al., Pharmacoeconomics 4(5):353 (1993); Reilly, Work Productivity and Activity Impairment Questionnaire: Specific Health Problem V2.0 (WPAI: SHP). www.reillyassociates.net/WPAI_SHP) evaluated work productivity impairment among employed patients and overall activity impairment outside of work among all patients for the past 7 days. […]

[2] = tested on: adult patients with OSA and ES; assay: FOSQ-10, 12-week parallel study in OSA
Protocol: The study was a 12-week, double-blind, placebo-controlled, parallel design study as described in greater detail in Example 1 (Schweitzer et al., Sleep 40(Abstract Supplement):A237. Abstract 0641 (2017)). Patients were randomized (1:1:2:2:2) to APC 37.5, 75, 150, 300 mg, or placebo for 12 weeks, and were stratified by adherence or non-adherence with primary OSA therapy (adherent definition was use for ≥4 hours per night on >70% of nights). Two patient-reported measures were included as secondary efficacy outcomes to evaluate the effects of APC on functional status and work productivity and activity impairment at baseline and weeks 1, 4, 8, and 12. The Functional Outcomes of Sleep questionnaire short version (FOSQ-10) (Chasens et al., Sleep 32(7):915 (2009)) evaluated the effects of ES on functioning. The Work Productivity and Activity Impairment questionnaire for Specific Health Problems (WPAI:SHP) (Reilly et al., Pharmacoeconomics 4(5):353 (1993); Reilly, Work Productivity and Activity Impairment Questionnaire: Specific Health Problem V2.0 (WPAI: SHP). www.reillyassociates.net/WPAI_SHP) evaluated work productivity impairment among employed patients and overall activity impairment outside of work among all patients for the past 7 days. Four outcomes are available from the WPAI:SHP: Absenteeism (percent work time missed due to health); Presenteeism (percent impairment while working due to health); Percent overall work impairment (calculated from absenteeism and presenteeism); and Percent activity impairment due to health. The FOSQ-10 was evaluated as change over time compared with placebo (least squares (LS) mean); the 4 WPAI outcomes were evaluated at week 12 compared to placebo. Efficacy analyses were based on the modified intent-to-treat population (mITT) and there was no multiplicity adjustment for the FOSQ-10 or WPAI:SHP. Safety and tolerability were assessed based on treatment-emergent adverse events (TEAEs), vital signs, electrocardiogram test, physical exams, Columbia-Suicide Severity Rating Scale, and laboratory tests in the safety population.

[3] = tested on: patients with narcolepsy type 1 or type 2; assay: PGI-C, 12-week phase 3 study in narcolepsy
Protocol: The study was a 12-week, double-blind, randomized, placebo-controlled, parallel-group study. Patients were randomized (1:1:1:1) to receive placebo or APC 75, 150, or 300 mg; randomization was stratified by the presence or absence of cataplexy.
Co-primary endpoints were change from baseline to week 12 in MWT mean sleep latency and ESS score. The key secondary endpoint was the percentage of patients who reported improvement on the Patient Global Impression of Change (PGI-C) (Guy, ECDEU assessment manual for psychopharmacology, revised. US Department of Health, Education, and Welfare publication (ADM 76-338). Rockville, MD: National Institute of Mental Health; 1976) at week 12. Other secondary and exploratory endpoints included changes on function and quality-of-life and changes in the number of cataplexy attacks per week. Safety evaluation included adverse events, laboratory tests, and vital signs.
Efficacy analyses were based on the modified intent-to-treat population (mITT), defined as all patients who were randomized, received at least 1 dose of study drug, and had baseline and at least 1 post-baseline evaluation of both MWT and ESS. MWT and ESS were analyzed using a mixed-effect repeated measures (MMRM) model. PGI-C was analyzed using a chi-square test. […]

Compound: NC(=O)OC[C@H](N)Cc1ccccc1 [JZP-110, (R)-2-amino-3-phenylpropyl carbamate]
- Co-primary ESS endpoint [1]: met at all doses
- FOSQ-10 scores at week 12 ([2]; 37.5 to 300 mg, mITT): dose dependently increased FOSQ-10 scores
- FOSQ-10, time at which improvements were observed ([2]; 150 and 300 mg doses): as early as week 1
- FOSQ-10 scores at week 12, effect relative to placebo ([2]; 150 and 300 mg doses): statistically significant effects
- Percentage of patients who reported improvement in overall condition (PGI-C) relative to placebo ([3]; all doses (nominal P-value at 75 mg), week 12, mITT): significantly increased the percentage of patients who reported improvement
- PGI-C improvement, effect at week 1 ([3]; all doses, as early as week 1): Statistically significant effects
